Measurements published in ChEMBL document CHEMBL1201862, “PubChem BioAssay data set” (2004).
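96-well plates; 48 h exposure; 5 concentrations. Endpoints by linear interpolation between flanking doses. Not reached: highest tested concentration assigned. The concentration for 50% growth inhibition is given as GI50.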 Active and inactive are the calls of the source. Rule as the data show it: active = GI50 up to about 1.1 µM and inactive = higher.

What was measured:
Experiment in all cases: growth of human tumour cells (NCI), 48 h
SK-MEL-5 = tested on: SK-MEL-5
RPMI-8226 = tested on: RPMI-8226
SK-MEL-2 = tested on: SK-MEL-2
UO-31 = tested on: UO-31
SF-295 = tested on: SF-295
SK-MEL-28 = tested on: SK-MEL-28
NCI-H23 = tested on: NCI-H23
SF-539 = tested on: SF-539
TK-10 = tested on: TK-10
NCI-H460 = tested on: NCI-H460
SNB-78 = tested on: SNB-78
K562 = tested on: K562
IGROV-1 = tested on: IGROV-1
A549 = tested on: A549
HCT-15 = tested on: HCT-15
M19-MEL = tested on: M19-MEL
COLO 205 = tested on: COLO 205
NCI-H522 = tested on: NCI-H522
EKVX = tested on: EKVX

| SMILES | GI50 (SK-MEL-5) | GI50 (RPMI-8226) | GI50 (SK-MEL-2) | GI50 (UO-31) | GI50 (SF-295) | GI50 (SK-MEL-28) | GI50 (NCI-H23) | GI50 (SF-539) | GI50 (TK-10) | GI50 (NCI-H460) | GI50 (SNB-78) | GI50 (K562) | GI50 (IGROV-1) | GI50 (A549) | GI50 (HCT-15) | GI50 (M19-MEL) | GI50 (COLO 205) | GI50 (NCI-H522) | GI50 (EKVX) |
| --- | --- | --- | --- | --- | --- | --- | --- | --- | --- | --- | --- | --- | --- | --- | --- | --- | --- | --- | --- |
| CN1C(=O)CNS1(=O)=O | > 100 µM (inactive) | > 100 µM (inactive) | > 100 µM (inactive) | > 100 µM (inactive) | > 100 µM (inactive) | > 100 µM (inactive) | > 100 µM (inactive) | > 100 µM (inactive) | > 100 µM (inactive) | > 100 µM (inactive) | > 100 µM (inactive) | > 100 µM (inactive) | > 100 µM (inactive) | > 100 µM (inactive) | > 100 µM | – | – | – | – |
| O=C1C2=C(CCC2)Nc2cccc3ncn1c23 | 69.5 µM (inactive) | > 100 µM (inactive) | 56.5 µM (inactive) | > 100 µM (inactive) | > 100 µM (inactive) | 61.9 µM (inactive) | 51.6 µM (inactive) | > 100 µM (inactive) | 14.7 µM (inactive) | 33.7 µM (inactive) | > 100 µM (inactive) | > 100 µM (inactive) | > 100 µM (inactive) | 33.7 µM (inactive) | 48.1 µM | > 100 µM (inactive) | 43.4 µM (inactive) | 69.7 µM (inactive) | > 100 µM (inactive) |
| CCCCCCCCC/C=C1\CCC(CN(C)C)C1=O (stereo not drawn) | 2.05 µM (inactive) | 0.0619 µM (active) | 2.72 µM (inactive) | 2.02 µM (inactive) | 3.22 µM (inactive) | 2.03 µM (inactive) | 2.44 µM (inactive) | 1.79 µM (inactive) | 2.18 µM (inactive) | 3.43 µM (inactive) | 2.37 µM (inactive) | 1.86 µM (inactive) | 2.63 µM (inactive) | 4.39 µM (inactive) | 2.22 µM | 1.86 µM (inactive) | 2.29 µM (inactive) | 1.95 µM (inactive) | 2.47 µM (inactive) |
| COC(=O)c1ccccc1NC(=O)C(=O)Cc1nc2c3c(ccc2nc1O)C(=O)c1ccccc1C3=O | 2.99 µM (inactive) | 8.2 µM (inactive) | 15 µM (inactive) | 12.2 µM (inactive) | – | 15.7 µM (inactive) | 11.5 µM (inactive) | 23.9 µM (inactive) | 23.8 µM (inactive) | 16.2 µM (inactive) | 34 µM (inactive) | 23.9 µM (inactive) | 15.7 µM (inactive) | 14 µM (inactive) | 21.9 µM | 6.56 µM (inactive) | 15.8 µM (inactive) | 9.14 µM (inactive) | 5.21 µM (inactive) |
| Cc1ccc(-c2nc3ccccc3c(=O)n2NC2OC(CO)C(O)C(O)C2O)cc1 (stereo not drawn) | > 100 µM (inactive) | > 100 µM (inactive) | > 100 µM (inactive) | > 100 µM (inactive) | > 100 µM (inactive) | > 100 µM (inactive) | > 100 µM (inactive) | > 100 µM (inactive) | > 100 µM (inactive) | > 100 µM (inactive) | > 100 µM (inactive) | > 100 µM (inactive) | > 100 µM (inactive) | > 100 µM (inactive) | > 100 µM | > 100 µM (inactive) | > 100 µM (inactive) | > 100 µM (inactive) | > 100 µM (inactive) |
| COC(=O)C1CCc2c(OC)ccc(OC)c2C1=O (stereo not drawn) | > 100 µM (inactive) | > 100 µM (inactive) | > 100 µM (inactive) | > 100 µM (inactive) | > 100 µM (inactive) | > 100 µM (inactive) | > 100 µM (inactive) | > 100 µM (inactive) | > 100 µM (inactive) | > 100 µM (inactive) | > 100 µM (inactive) | > 100 µM (inactive) | > 100 µM (inactive) | > 100 µM (inactive) | – | > 100 µM (inactive) | > 100 µM (inactive) | > 100 µM (inactive) | > 100 µM (inactive) |
| Nc1nc(=O)[nH]c2c1cnn2COCCO | > 100 µM (inactive) | > 100 µM (inactive) | > 100 µM (inactive) | > 100 µM (inactive) | > 100 µM (inactive) | 37.1 µM (inactive) | 17.3 µM (inactive) | > 100 µM (inactive) | 20.7 µM (inactive) | > 100 µM (inactive) | 21.5 µM (inactive) | > 100 µM (inactive) | > 100 µM (inactive) | > 100 µM (inactive) | > 100 µM | – | > 100 µM (inactive) | – | > 100 µM (inactive) |
| NC(CCC(=O)NC(CSSCCCCS(=O)O)C(=O)NCC(=O)O)C(=O)O (stereo not drawn) | > 100 µM (inactive) | – | > 100 µM (inactive) | > 100 µM (inactive) | > 100 µM (inactive) | > 100 µM (inactive) | > 100 µM (inactive) | > 100 µM (inactive) | > 100 µM (inactive) | > 100 µM (inactive) | > 100 µM (inactive) | > 100 µM (inactive) | > 100 µM (inactive) | > 100 µM (inactive) | > 100 µM | > 100 µM (inactive) | > 100 µM (inactive) | > 100 µM (inactive) | > 100 µM (inactive) |
